Ki data for 5 compounds are collected here from patent US12559529B2, “NPY2 receptor agonists” (Boehringer Ingelheim International GmbH, priority 2019, dated 2026).

*1 amine or outer side, *2 acyl side, *3 side chain or, on linkers, in order; H or OH if unused. Where a SMILES comes first, the peptide text is derived from it. Side-chain parts run from the residue outwards. The star is where a group is joined. C18 diacid = O=C(O)CCCCCCCCCCCCCCCCC(=O)*; γGlu = O=C(O)[C@H](CCC(=O)[*:2])N[*:1]; Isovaleryl = CC(C)CC(=O)*; AEEA = NCCOCCOCC(=O)O

This test has as its target T1, Human Neuropeptide Y2 Receptor (Homo sapiens, UniProt P49146).
T1 construct: purchased CHEMICON HTS066M
T1 sequence (P49146 1-381): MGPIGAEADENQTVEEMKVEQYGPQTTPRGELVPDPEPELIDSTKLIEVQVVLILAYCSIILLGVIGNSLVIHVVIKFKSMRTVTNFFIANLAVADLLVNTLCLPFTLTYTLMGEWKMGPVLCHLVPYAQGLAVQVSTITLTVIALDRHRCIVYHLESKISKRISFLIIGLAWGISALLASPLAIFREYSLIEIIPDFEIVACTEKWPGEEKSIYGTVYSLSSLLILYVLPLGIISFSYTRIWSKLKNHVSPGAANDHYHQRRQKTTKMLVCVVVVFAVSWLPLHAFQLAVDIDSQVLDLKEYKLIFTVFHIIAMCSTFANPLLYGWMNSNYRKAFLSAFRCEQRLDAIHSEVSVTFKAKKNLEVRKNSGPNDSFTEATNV
The test is described as follows: Radioligand binding competition assay (RLB). The conditions noted are these: Table 3; human 125I-PYY (1-36) 0.02 nM, Y2 receptor membranes; read-out: Ki. A digest of the protocol: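 Membranes (0.5 μg/well) and test peptides, serially diluted from 1 mM DMSO stocks, were incubated 2 hours at room temperature in HEPES buffer pH 7.4 with Mg, Ca and ovalbumin.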
Turning to `CC(C)CC(=O)N[C@@H](C)C(=O)N1CCC[C@H]1C(=O)N[C@@H](CCC(=O)O)C(=O)N[C@@H](CCCCNC(=O)COCCOCCNC(=O)COCCOCCNC(=O)CC[C@H](NC(=O)CCCCCCCCCCCCCCCCC(=O)O)C(=O)O)C(=O)N1CCC[C@H]1C(=O)N[C@@H](CCC(=O)O)C(=O)N[C@@H](CCC(=O)O)C(=O)N[C@@H](CCC(=O)O)C(=O)N[C@@H](C)C(=O)N[C@@H](CO)C(=O)N1CCC[C@H]1C(=O)N[C@@H](CCC(=O)O)C(=O)N[C@@H](CCC(=O)O)C(=O)N[C@@H](CC(C)C)C(=O)N[C@@H](CCC(N)=O)C(=O)N[C@@H](CCCNC(=N)N)C(=O)N[C@@H](Cc1ccc(O)cc1)C(=O)N[C@@H](Cc1ccc(O)cc1)C(=O)N[C@H](C(=O)N[C@@H](CO)C(=O)N[C@H](C(=O)N[C@@H](CCCNC(=N)N)C(=O)N[C@@H](Cc1c[nH]cn1)C(=O)N[C@@H](Cc1ccc(O)cc1)C(=O)N[C@@H](Cc1ccc(O)cc1)C(=O)N[C@@H](CC(N)=O)C(=O)N[C@@H](Cc1c[nH]c2ccccc12)C(=O)N[C@@H](CC(C)C)C(=O)N[C@H](C(=O)N[C@@H](CCCNC(=N)N)C(=O)N[C@@H](CCC(N)=O)C(=O)N[C@@H](CCCNC(=N)N)C(=O)N[C@@H](Cc1ccc(O)cc1)C(N)=O)[C@@H](C)O)[C@@H](C)O)C(C)C` [Compound 146, N{alpha-4}-(3-methylbutanoyl)-N{epsilon-7}-[2-(2-{2-[2-(2-{2-[(4S)-4-carboxy-4-(17-carboxyheptadecanamido)butanamido]ethoxy}ethoxy)acetamido]ethoxy}ethoxy)acetamido]-[4A,7K,9E,11E,18Q,22V,24T,28Y,30W,31L]hPYY (4-36)] (Isovaleryl-APEK([AEEA-AEEA-γGlu-C18 diacid])PEEEASPEELQRYYVSTRHYYNWLTRQRY-NH2), the inhibition constant (Ki) came out at 5.05 nM.
`CC(C)CC(=O)N[C@@H](C)C(=O)N1CCC[C@H]1C(=O)N[C@@H](CCC(=O)O)C(=O)N[C@@H](CCCCNC(=O)COCCOCCNC(=O)COCCOCCNC(=O)CC[C@H](NC(=O)CCCCCCCCCCCCCCCCC(=O)O)C(=O)O)C(=O)N1CCC[C@H]1C(=O)N[C@@H](CCC(=O)O)C(=O)N[C@@H](CCC(=O)O)C(=O)N[C@@H](CC(=O)O)C(=O)N[C@@H](C)C(=O)N[C@@H](CO)C(=O)N1CCC[C@H]1C(=O)N[C@@H](CCC(=O)O)C(=O)N[C@@H](CCC(=O)O)C(=O)N[C@H](C(=O)N[C@@H](CCC(N)=O)C(=O)N[C@@H](CCCCN)C(=O)N[C@@H](Cc1ccc(O)cc1)C(=O)N[C@@H](Cc1ccc(O)cc1)C(=O)N[C@H](C(=O)N[C@@H](CO)C(=O)N[C@@H](CC(C)C)C(=O)N[C@@H](CCCNC(=N)N)C(=O)N[C@@H](Cc1c[nH]cn1)C(=O)N[C@@H](Cc1ccc(O)cc1)C(=O)N[C@@H](Cc1ccc(O)cc1)C(=O)N[C@@H](CC(N)=O)C(=O)N[C@@H](Cc1c[nH]c2ccccc12)C(=O)N[C@@H](CC(C)C)C(=O)N[C@H](C(=O)N[C@@H](CCCNC(=N)N)C(=O)N[C@@H](CCC(N)=O)C(=O)N[C@@H](CCCNC(=N)N)C(=O)N[C@@H](Cc1ccc(O)cc1)C(N)=O)[C@@H](C)O)C(C)C)[C@@H](C)O` [Compound 147, N{alpha-4}-(3-methylbutanoyl)-N{epsilon-7}-[2-(2-{2-[2-(2-{2-[(4S)-4-carboxy-4-(17-carboxyheptadecanamido)butanamido]ethoxy}ethoxy)acetamido]ethoxy}ethoxy)acetamido]-[4A,7K,9E,17T,18Q,19K,22V,28Y,30W,31L]hPYY (4-36)]: the inhibitory constant (Ki) is 1.19 nM.
On to `CC(C)CC(=O)N[C@@H](C)C(=O)N1CCC[C@H]1C(=O)N[C@@H](CCC(=O)O)C(=O)N[C@@H](CCCCNC(=O)COCCOCCNC(=O)COCCOCCNC(=O)CC[C@H](NC(=O)CCCCCCCCCCCCCCCCC(=O)O)C(=O)O)C(=O)N1CCC[C@H]1C(=O)N[C@@H](CCC(=O)O)C(=O)N[C@@H](CCC(=O)O)C(=O)N[C@@H](C)C(=O)N[C@@H](C)C(=O)N[C@@H](CO)C(=O)N1CCC[C@H]1C(=O)N[C@@H](CCC(=O)O)C(=O)N[C@@H](CCC(=O)O)C(=O)N[C@@H](CC(C)C)C(=O)N[C@@H](CCC(N)=O)C(=O)N[C@@H](CCCNC(=N)N)C(=O)N[C@@H](Cc1ccc(O)cc1)C(=O)N[C@@H](Cc1ccc(O)cc1)C(=O)N[C@H](C(=O)N[C@@H](CCC(=O)O)C(=O)N[C@@H](CC(C)C)C(=O)N[C@@H](CCCNC(=N)N)C(=O)N[C@@H](Cc1c[nH]cn1)C(=O)N[C@@H](Cc1ccc(O)cc1)C(=O)N[C@@H](Cc1ccc(O)cc1)C(=O)N[C@@H](CC(N)=O)C(=O)N[C@@H](Cc1c[nH]c2ccccc12)C(=O)N[C@@H](CC(C)C)C(=O)N[C@H](C(=O)N[C@@H](CCCNC(=N)N)C(=O)N[C@@H](CCC(N)=O)C(=O)N[C@@H](CCCNC(=N)N)C(=O)N[C@@H](Cc1ccc(O)cc1)C(N)=O)[C@@H](C)O)C(C)C` [Compound 149, N{alpha-4}-(3-methylbutanoyl)-N{epsilon-7}-[2-(2-{2-[2-(2-{2-[(4S)-4-carboxy-4-(17-carboxyheptadecanamido)butanamido]ethoxy}ethoxy)acetamido]ethoxy}ethoxy)acetamido]-[4A,7K,9E,11A,18Q,22V,23E,28Y,30W,31L]hPYY (4-36)], for which the inhibition constant Ki is 2.75 nM.
As for `CC[C@H](C)[C@H](NC(=O)[C@H](CCC(=O)O)NC(=O)[C@H](CCC(=O)O)NC(=O)[C@@H]1CCCN1C(=O)[C@H](CO)NC(=O)[C@H](C)NC(=O)[C@H](CC(=O)O)NC(=O)[C@H](CCC(=O)O)NC(=O)[C@H](CCC(=O)O)NC(=O)[C@H](C)NC(=O)[C@H](CCCCNC(=O)COCCOCCNC(=O)COCCOCCNC(=O)CC[C@H](NC(=O)CCCCCCCCCCCCCCCCC(=O)O)C(=O)O)NC(=O)[C@H](CCC(=O)O)NC(=O)[C@@H]1CCCN1C(=O)[C@H](C)NC(=O)CC(C)C)C(=O)N[C@@H](CCC(N)=O)C(=O)N[C@@H](CCCNC(=N)N)C(=O)N[C@@H](Cc1ccc(O)cc1)C(=O)N[C@@H](Cc1ccc(O)cc1)C(=O)N[C@H](C(=O)N[C@@H](CO)C(=O)N[C@@H](CC(C)C)C(=O)N[C@@H](CCCNC(=N)N)C(=O)N[C@@H](Cc1c[nH]cn1)C(=O)N[C@@H](Cc1ccc(O)cc1)C(=O)N[C@@H](Cc1ccc(O)cc1)C(=O)N[C@@H](CC(N)=O)C(=O)N[C@@H](Cc1c[nH]c2ccccc12)C(=O)N[C@@H](CC(C)C)C(=O)N[C@H](C(=O)N[C@@H](CCCNC(=N)N)C(=O)N[C@@H](CCC(N)=O)C(=O)N[C@@H](CCCNC(=N)N)C(=O)N[C@@H](Cc1ccc(O)cc1)C(N)=O)[C@@H](C)O)C(C)C` [Compound 152, N{alpha-4}-(3-methylbutanoyl)-N{epsilon-7}-[2-(2-{2-[2-(2-{2-[(4S)-4-carboxy-4-(17-carboxyheptadecanamido)butanamido]ethoxy}ethoxy)acetamido]ethoxy}ethoxy)acetamido]-[4A,7K,8A,9E,17I,18Q,22V,28Y,30W,31L]hPYY (4-36)], the figure is 5.18 nM.
The result for `CC(C)CC(=O)N[C@@H](C)C(=O)N1CCC[C@H]1C(=O)N[C@@H](CCC(=O)O)C(=O)N[C@@H](CCCCNC(=O)COCCOCCNC(=O)COCCOCCNC(=O)CC[C@H](NC(=O)CCCCCCCCCCCCCCCCC(=O)O)C(=O)O)C(=O)N[C@H](C(=O)N[C@@H](CCC(=O)O)C(=O)N[C@@H](CCC(=O)O)C(=O)N[C@@H](CCC(=O)O)C(=O)N[C@@H](C)C(=O)N[C@@H](CO)C(=O)N1CCC[C@H]1C(=O)N[C@@H](CCC(=O)O)C(=O)N[C@@H](CCC(=O)O)C(=O)N[C@@H](CC(C)C)C(=O)N[C@@H](CCC(N)=O)C(=O)N[C@@H](CCCNC(=N)N)C(=O)N[C@@H](Cc1ccc(O)cc1)C(=O)N[C@@H](Cc1ccc(O)cc1)C(=O)N[C@H](C(=O)N[C@@H](CO)C(=O)N[C@@H](CC(C)C)C(=O)N[C@@H](CCCNC(=N)N)C(=O)N[C@@H](Cc1c[nH]cn1)C(=O)N[C@@H](Cc1ccc(O)cc1)C(=O)N[C@@H](Cc1ccc(O)cc1)C(=O)N[C@@H](CC(N)=O)C(=O)N[C@@H](Cc1c[nH]c2ccccc12)C(=O)N[C@@H](CC(C)C)C(=O)N[C@H](C(=O)N[C@@H](CCCNC(=N)N)C(=O)N[C@@H](CCC(N)=O)C(=O)N[C@@H](CCCNC(=N)N)C(=O)N[C@@H](Cc1ccc(O)cc1)C(N)=O)[C@@H](C)O)C(C)C)C(C)C` [Compound 153, N{alpha-4}-(3-methylbutanoyl)-N{epsilon-7}-[2-(2-{2-[2-(2-{2-[(4S)-4-carboxy-4-(17-carboxyheptadecanamido)butanamido]ethoxy}ethoxy)acetamido]ethoxy}ethoxy)acetamido]-[4A,7K,8V,9E,11E,18Q,22V,28Y,30W,31L]hPYY (4-36)] (Isovaleryl-APEK([AEEA-AEEA-γGlu-C18 diacid])VEEEASPEELQRYYVSLRHYYNWLTRQRY-NH2) reads 14.4 nM.
